Experiments:
11β-HSD1 (human enzyme) = target: T1, 11β-HSD1 (human enzyme) (Homo sapiens, UniProt P28845); assay: Enzyme Assay (SPA, 3H-cortisone, purified HSD-1 enzyme prep), human enzyme; format: biochemical; details: species of enzyme not given
T1 construct: made in house

intraocular pressure = details: ingestion, normal subjects; cited from earlier work

T1 sequence (P28845 whole entry): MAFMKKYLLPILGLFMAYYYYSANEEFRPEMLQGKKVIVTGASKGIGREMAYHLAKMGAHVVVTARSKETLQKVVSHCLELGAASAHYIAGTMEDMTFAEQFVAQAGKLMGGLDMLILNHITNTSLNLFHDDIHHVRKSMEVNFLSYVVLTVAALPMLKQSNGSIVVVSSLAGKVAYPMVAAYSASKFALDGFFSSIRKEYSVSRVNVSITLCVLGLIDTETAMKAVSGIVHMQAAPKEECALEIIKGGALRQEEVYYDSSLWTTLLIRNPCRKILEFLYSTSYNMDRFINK

Row | SMILES | IC50 (11β-HSD1 (human enzyme)) [µM] | reduction of intraocular pressure (intraocular pressure) [%]
1 | CC1(C)[C@@H](OC(=O)CCC(=O)O)CC[C@]2(C)[C@H]3C(=O)C=C4[C@@H]5C[C@@](C)(C(=O)O)CC[C@]5(C)CC[C@@]4(C)[C@]3(C)CC[C@@H]12 [carbenoxolone] |  | 20
2 | CC1(CC(F)(F)F)SC(N[C@@H]2C[C@H]3CC[C@@H]2C3)=NC1=O (stereo partly drawn) [2-((1R,2R,4S)-bicyclo[2.2.1]heptan-2-ylamino)-5-methyl-5-(2,2,2-trifluoroethyl)thiazol-4(5H)-one] | < 0.02 | 
3 | CO[C@@H]1CCC[C@@]2(C1)SC(NC1CCCCCCC1)=NC2=O [(5S,7R)-2-(cyclooctylamino)-7-(methyloxy)-1-thia-3-azaspiro[4.5]dec-2-en-4-one] | < 0.02 | 
4 | O=C1N=C(Nc2ccccc2Cl)SC1C1CCCCC1 (centres unmarked) [2-(2-chlorophenylamino)-5-cyclohexylthiazol-4(5H)-one] | < 0.02 | 
5 | CC1(c2ccncc2)SC(Nc2ccccc2C(F)(F)F)=NC1=O (centres unmarked) [5-methyl-5-(pyridin-4-yl)-2-(2-(trifluoromethyl)phenylamino)thiazol-4(5H)-one] | < 0.02 | 
6 | O=C1N=C(NCC2CCCCC2)SC1[C@H]1CCOC1 (stereo partly drawn) [2-(cyclohexylmethylamino)-5-(S)-tetrahydrofuran-3-yl)thiazol-4(5H)-one] | < 0.02 | 
7 | O=C1N=C(Nc2ccccc2F)SC12CCCC2 [2-((2-fluorophenyl)amino)-1-thia-3-azaspiro[4.4]non-2-en-4-one] | < 0.02 | 
8 | O=C1N=C(Nc2ccccc2Cl)SC1C1CCCC1 (centres unmarked) [2-(2-chlorophenylamino)-5-cyclopentylthiazol-4(5H)-one] | < 0.02 | 
9 | CC(C)[C@@]1(C)SC(Nc2ccccc2Cl)=NC1=O [(5R)-2-((2-chlorophenyl)amino)-5-methyl-5-(1-methylethyl)-1,3-thiazol-4(5H)-one] | < 0.02 | 
10 | CC(C)C1(C)SC(N[C@H](C)c2ccc(F)cc2)=NC1=O (stereo partly drawn) [2-((R)-1-(4-fluorophenyl)ethylamino)-5-isopropyl-5-methylthiazol-4(5H)-one] | < 0.02 | 
11 | CC1(C2CCOCC2)SC(Nc2ccccc2Cl)=NC1=O (centres unmarked) [2-(2-chlorophenylamino)-5-methyl-5-(tetrahydro-2H-pyran-4-yl)thiazol-4(5H)-one] | < 0.02 | 
12 | O=C1N=C(Nc2ccccc2F)SC1C1CCCC1 (centres unmarked) [5-cyclopentyl-2-(2-fluorophenylamino)thiazol-4(5H)-one] | < 0.02 | 
13 | CCC1(C)SC(NC23CC4CC(CC(C4)C2)C3)=NC1=O (centres unmarked) [5-ethyl-5-methyl-2-(tricyclo[3.3.1.1˜3,7˜]dec-1-ylamino)-1,3-thiazol-4(5H)-one] | < 0.02 | 
14 | CC1(c2ccccc2)SC(Nc2ccccc2Cl)=NC1=O (centres unmarked) [2-((2-chlorophenyl)amino)-5-methyl-5-phenyl-1,3-thiazol-4(5H)-one] | < 0.02 | 
15 | C[C@@]1(c2ccccc2)SC(Nc2ccccc2Cl)=NC1=O [(5S)-2-((2-chlorophenyl)amino)-5-methyl-5-phenyl-1,3-thiazol-4(5H)-one] | < 0.02 | 

Further lines, with some results ahead:

Row | IC50 (11β-HSD1 (human enzyme)) [µM] | SMILES | reduction of intraocular pressure (intraocular pressure) [%]
16 | < 0.02 | CC(C)C1(C)SC(N[C@@H](C)C2CCCCC2)=NC1=O (stereo partly drawn) [2-((S)-1-cyclohexylethylamino)-5-isopropyl-5-methylthiazol-4(5H)-one] | 
17 | < 0.02 | CC(C)C1(C)SC(NC23CC4CC(CC(F)(C4)C2)C3)=NC1=O (centres unmarked) [2-((3-fluorotricyclo[3.3.1.1˜3,7˜]dec-1-yl)amino)-5-methyl-5-(1-methylethyl)-1,3-thiazol-4(5H)-one] | 
18 | < 0.02 | O=C1N=C(Nc2ccccc2F)SC1[C@H]1CCOC1 (stereo partly drawn) [2-(2-fluorophenylamino)-5-((S)-tetrahydrofuran-3-yl)thiazol-4(5H)-one] | 
19 | < 0.02 | Cc1ccc(F)cc1NC1=NC(=O)C(C(C)C)S1 (centres unmarked) [2-((5-fluoro-2-methylphenyl)amino)-5-(1-methylethyl)-1,3-thiazol-4(5H)-one] | 
20 | < 0.02 | CC(C)C1SC(Nc2ccccc2Cl)=NC1=O (centres unmarked) [2-((2-chlorophenyl)amino)-5-(1-methylethyl)-1,3-thiazol-4(5H)-one] | 
21 | < 0.02 | CCCC1(C)SC(N[C@@H]2C[C@H]3CC[C@@H]2C3)=NC1=O (stereo partly drawn) [2-((1R,2R,4S)-bicyclo[2.2.1]heptan-2-ylamino)-5-methyl-5-propylthiazol-4(5H)-one] | 
22 | < 0.02 | CC1(c2ccncc2)SC(Nc2ccccc2Cl)=NC1=O (centres unmarked) [2-(2-chlorophenylamino)-5-methyl-5-(pyridin-4-yl)thiazol-4(5H)-one] | 
23 | < 0.02 | Cc1c(Cl)cccc1NC1=NC(=O)C(C(C)C)S1 (centres unmarked) [2-((3-chloro-2-methylphenyl)amino)-5-(1-methylethyl)-1,3-thiazol-4(5H)-one] | 
24 | < 0.02 | C[C@H](NC1=NC(=O)C(C)(c2ccncc2)S1)c1ccccc1F (stereo partly drawn) [2-((S)-1-(2-fluorophenyl)ethylamino)-5-methyl-5-(pyridin-4-yl)thiazol-4(5H)-one] | 
25 | < 0.02 | CC1([C@H]2CCOC2)SC(NCC2CCCCC2)=NC1=O (stereo partly drawn) [2-(cyclohexylmethylamino)-5-methyl-5-((S)-tetrahydrofuran-3-yl)thiazol-4(5H)-one] | 
26 | < 0.02 | C[C@H](NC1=NC(=O)C(C)(c2ccncc2)S1)c1ccc(F)cc1 (stereo partly drawn) [2-((S)-1-(4-fluorophenyl)ethylamino)-5-methyl-5-(pyridin-4-yl)thiazol-4(5H)-one] | 
